As usually defined, the IC50 is the concentration needed to halve the response being measured. Read a low IC50 as greater potency in that assay.

Data on 34 molecules can be found in patent publication US10292985B2, “TGF beta receptor antagonists” (BRISTOL-MYERS SQUIBB COMPANY, priority 2015, dated 2019).

For the first test, the target named is HIS-TGFβR1 T204D (Homo sapiens (Human), UniProt P36897, T204D). The test is described as follows: HTRF probe-displacement assay, TGFβR1. In kind it is binding. As to conditions: GST tagged wild type protein used instead of HIS-tagged protein (starred values). On the procedure: Em: 520 nm/495 nm). […] Compounds were dissolved at 10 mM in dimethylsulfoxide (DMSO) and evaluated at eleven concentrations. IC50 values were derived by non-linear regression analysis.
Sequence of HIS-TGFβR1 T204D (P36897 34-503 T204D): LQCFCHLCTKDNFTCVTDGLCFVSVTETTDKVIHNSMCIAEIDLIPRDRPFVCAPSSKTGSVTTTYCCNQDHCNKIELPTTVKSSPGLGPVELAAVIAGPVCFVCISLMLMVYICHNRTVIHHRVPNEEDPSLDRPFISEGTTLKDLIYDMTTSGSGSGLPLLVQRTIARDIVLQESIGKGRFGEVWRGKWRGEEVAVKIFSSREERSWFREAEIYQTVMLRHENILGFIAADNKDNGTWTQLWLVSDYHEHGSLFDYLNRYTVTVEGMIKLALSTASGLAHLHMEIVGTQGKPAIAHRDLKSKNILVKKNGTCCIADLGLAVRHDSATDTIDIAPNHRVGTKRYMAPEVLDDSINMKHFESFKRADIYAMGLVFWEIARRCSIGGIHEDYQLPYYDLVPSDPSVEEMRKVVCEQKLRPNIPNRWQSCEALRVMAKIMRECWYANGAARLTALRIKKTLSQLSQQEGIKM
For orientation: TR-FRET usually uses a lanthanide donor and a delayed reading to cut background.
Molecule `Cc1ccc(F)c(-c2nc(-n3ccc4cnccc43)c3cccn3n2)n1` [Example 4, 3-fluoro-6-methyl-2-(4-{1H-pyrrolo[3,2-c]pyridin-1-yl}pyrrolo[2,1-f][1,2,4]triazin-2-yl)pyridine] yielded an IC50 of 18 nM. Still for that read-out and setting: the result for `Cc1cccc(-c2nc(Nc3ccnc4ccc(Br)cc34)c3cccn3n2)n1` [Example 12, 6-bromo-N-[2-(6-methylpyridin-2-yl)pyrrolo[2,1-f][1,2,4]triazin-4-yl]quinolin-4-amine] reads 280 nM.

The molecule `Cc1cccc(-c2nc(Nc3ccnc4ccc(C(F)(F)F)cc34)c3cccn3n2)n1` [Example 16, N-[2-(6-methylpyridin-2-yl)pyrrolo[2,1-f][1,2,4]triazin-4-yl]-6-(trifluoromethyl)quinolin-4-amine] displayed an IC50 of 940 nM. The same measure, in the same setting: the result for `CS(=O)(=O)Nc1cccc(-c2nc(-n3ccc4cnccc43)c3cccn3n2)n1` [Example 25, N-[6-(4-{1H-pyrrolo[3,2-c]pyridin-1-yl}pyrrolo[2,1-f][1,2,4]triazin-2-yl)pyridin-2-yl]methanesulfonamide] reads 33 nM.

Staying with this test, now noted: HIS-TGFβR1 T204D, 1 nM; 1 hour at room temperature.
Molecule `FC(F)(F)c1cccc(-c2nc(Nc3ccnc4cccnc34)c3cccn3n2)n1` [Example 2, N-{2-[6-(trifluoromethyl)pyridin-2-yl]pyrrolo[2,1-f][1,2,4]triazin-4-yl}-1,5-naphthyridin-4-amine] yielded an IC50 of 20 nM. Still for that read-out and setting: under `COc1cccc(-c2nc(Nc3ccc4ncccc4c3)c3cccn3n2)n1` [Example 3, N-(2-(6-methoxypyridin-2-yl)pyrrolo[2,1-f][1,2,4]triazin-4-yl)quinolin-6-amine] stands 13000 nM; under `Cc1cccc(-c2nc(-n3ccc4cnccc43)c3cccn3n2)n1` [Example 5, 2-methyl-6-(4-{1H-pyrrolo[3,2-c]pyridin-1-yl}pyrrolo[2,1-f][1,2,4]triazin-2-yl)pyridine], 0.96 nM; under `Fc1cccc(-c2nc(-n3ccc4cnccc43)c3cccn3n2)n1` [Example 6, 2-fluoro-6-(4-{1H-pyrrolo[3,2-c]pyridin-1-yl}pyrrolo[2,1-f][1,2,4]triazin-2-yl)pyridine], 1.4 nM. On to `Cn1cnc2ccc(Nc3nc(-c4ccccn4)nn4cccc34)cc21` [Example 7, 1-methyl-N-[2-(pyridin-2-yl)pyrrolo[2,1-f][1,2,4]triazin-4-yl]-1H-1,3-benzodiazol-6-amine], for which the IC50 turned out to be 240 nM.

In the case of `c1ccc(-c2nc(-n3ccc4cnccc43)c3cccn3n2)nc1` [Example 8, 2-(4-{1H-pyrrolo[3,2-c]pyridin-1-yl}pyrrolo[2,1-f][1,2,4]triazin-2-yl)pyridine], the IC50 amounted to 1.1 nM. This IC50 lies about 220-fold lower than the previous one.

`c1ccc(-c2nc(-n3cnc4cnccc43)c3cccn3n2)nc1` [Example 9, 2-(4-{1H-imidazo[4,5-c]pyridin-1-yl}pyrrolo[2,1-f][1,2,4]triazin-2-yl)pyridine] showed an IC50 of 5.1 nM. For the molecule `c1ccc(-c2nc(-n3ccc4ccncc43)c3cccn3n2)nc1` [Example 10, 2-(4-{1H-pyrrolo[2,3-c]pyridin-1-yl}pyrrolo[2,1-f][1,2,4]triazin-2-yl)pyridine], the half-inhibitory concentration (IC50) stood at 310 nM. As for `COc1ccc2nccc(Nc3nc(-c4cccc(C)n4)nn4cccc34)c2c1` [Example 11, 6-methoxy-N-[2-(6-methylpyridin-2-yl)pyrrolo[2,1-f][1,2,4]triazin-4-yl]quinolin-4-amine], the IC50 stood at 6.4 nM. `COc1ccc2c(Nc3nc(-c4cccc(C)n4)nn4cccc34)ccnc2c1` [Example 13, 7-methoxy-N-[2-(6-methylpyridin-2-yl)pyrrolo[2,1-f][1,2,4]triazin-4-yl]quinolin-4-amine] came in with an IC50 of 1.1 nM. The same measure, in the same setting: the result for `Cc1cccc(-c2nc(Nc3ccnc4ccc(F)cc34)c3cccn3n2)n1` [Example 14, 6-fluoro-N-[2-(6-methylpyridin-2-yl)pyrrolo[2,1-f][1,2,4]triazin-4-yl]quinolin-4-amine] reads 6.6 nM; that for `Cc1cccc(-c2nc(Nc3ccnc4ccc(Cl)cc34)c3cccn3n2)n1` [Example 15, 6-chloro-N-[2-(6-methylpyridin-2-yl)pyrrolo[2,1-f][1,2,4]triazin-4-yl]quinolin-4-amine], 4.7 nM; that for `Cc1cccc(-c2nc(Nc3ccnc4cc(C(F)(F)F)ccc34)c3cccn3n2)n1` [Example 17, N-[2-(6-methylpyridin-2-yl)pyrrolo[2,1-f][1,2,4]triazin-4-yl]-7-(trifluoromethyl)quinolin-4-amine], 1.4 nM. Still for that read-out and setting: the result for `Cc1cccc(-c2nc(Nc3ccnc4ccncc34)c3cccn3n2)n1` [Example 18, N-[2-(6-methylpyridin-2-yl)pyrrolo[2,1-f][1,2,4]triazin-4-yl]-1,6-naphthyridin-4-amine] reads 4.4 nM; that for `Cc1cccc(-c2nc(Nc3ccnc4cccnc34)c3cccn3n2)n1` [Example 19, N-[2-(6-methylpyridin-2-yl)pyrrolo[2,1-f][1,2,4]triazin-4-yl]-1,5-naphthyridin-4-amine], 5.1 nM. Same read-out and setting: the result for `COc1ccc2c(Nc3nc(-c4cccc(C(F)(F)F)n4)nn4cccc34)ccnc2c1` [Example 20, 7-methoxy-N-{2-[6-(trifluoromethyl)pyridin-2-yl]pyrrolo[2,1-f][1,2,4]triazin-4-yl}quinolin-4-amine] reads 4.2 nM; that for `COc1ccc2c(Nc3nc(-c4cccc(C(F)F)n4)nn4cccc34)ccnc2c1` [Example 21, N-{2-[6-(difluoromethyl)pyridin-2-yl]pyrrolo[2,1-f][1,2,4]triazin-4-yl}-7-methoxyquinolin-4-amine], 1.8 nM; that for `FC(F)c1cccc(-c2nc(Nc3ccnc4cccnc34)c3cccn3n2)n1` [Example 22, N-{2-[6-(difluoromethyl)pyridin-2-yl]pyrrolo[2,1-f][1,2,4]triazin-4-yl}-1,5-napthyridin-4-amine], 5.8 nM. `Cc1nc(-c2nc(-n3ccc4cnccc43)c3cccn3n2)ccc1F` [Example 23, 3-fluoro-2-methyl-6-(4-{1H-pyrrolo[3,2-c]pyridin-1-yl}pyrrolo[2,1-f][1,2,4]triazin-2-yl)pyridine]: the IC50 was 1.3 nM. The same measure, in the same setting: under `COc1cccc(-c2nc(-n3ccc4cnccc43)c3c(Cl)ccn3n2)n1` [Example 24, 2-(5-chloro-4-{1H-pyrrolo[3,2-c]pyridin-1-yl}pyrrolo[2,1-f][1,2,4]triazin-2-yl)-6-methoxypyridine] stands 10 nM; under `CCc1cccc(-c2nc(-n3ccc4cnccc43)c3cccn3n2)n1` [Example 26, 2-ethyl-6-(4-{1H-pyrrolo[3,2-c]pyridin-1-yl}pyrrolo[2,1-f][1,2,4]triazin-2-yl)pyridine], 1.2 nM; under `c1cc(-c2nc(-n3ccc4cnccc43)c3cccn3n2)nc(C2CC2)c1` [Example 27, 2-cyclopropyl-6-(4-{1H-pyrrolo[3,2-c]pyridin-1-yl}pyrrolo[2,1-f][1,2,4]triazin-2-yl)pyridine], 1.3 nM. Still for that read-out and setting: the result for `FC(F)(F)c1cccc(-c2nc(-n3ccc4cnccc43)c3cccn3n2)n1` [Example 28, 2-(4-{1H-pyrrolo[3,2-c]pyridin-1-yl}pyrrolo[2,1-f][1,2,4]triazin-2-yl)-6-(trifluoromethyl)pyridine] reads 3.8 nM; that for `FC(F)c1cccc(-c2nc(-n3ccc4cnccc43)c3cccn3n2)n1` [Example 29, 2-(difluoromethyl)-6-(4-{1H-pyrrolo[3,2-c]pyridin-1-yl}pyrrolo[2,1-f][1,2,4]triazin-2-yl)pyridine], 2.9 nM; that for `COc1cccc(-c2nc(-n3ncc4cnccc43)c3cccn3n2)n1` [Example 30, 2-methoxy-6-(4-{1H-pyrazolo[4,3-c]pyridin-1-yl}pyrrolo[2,1-f][1,2,4]triazin-2-yl)pyridine], 67 nM. The same measure, in the same setting: the result for `Clc1cccc(-c2nc(-n3ccc4cnccc43)c3cccn3n2)n1` [Example 31, 2-chloro-6-(4-{1H-pyrrolo[3,2-c]pyridin-1}-ylpyrrolo[2,1-f][1,2,4]triazin-2-yl)pyridine] reads 4.7 nM; that for `COc1cccc(-c2nc(-n3ccc4cnccc43)c3cccn3n2)n1` [Example 32, 2-methoxy-6-(4-{1H-pyrrolo[3,2-c]pyridin-1-yl}pyrrolo[2,1-f][1,2,4]triazin-2-yl)pyridine], 6.2 nM; that for `Cc1ccc(-c2nc(-n3ccc4cnccc43)c3cccn3n2)nc1` [Example 34, 5-methyl-2-(4-{1H-pyrrolo[3,2-c]pyridin-1-yl}pyrrolo[2,1-f][1,2,4]triazin-2-yl)pyridine], 12 nM.

Consider `CSc1nccc(-c2nc(-n3ccc4cnccc43)c3cccn3n2)n1` [Example 35, 2-(methylsulfanyl)-4-(4-{1H-pyrrolo[3,2-c]pyridin-1-yl}pyrrolo[2,1-f][1,2,4]triazin-2-yl)pyrimidine], for which the half-maximal inhibitory concentration (IC50) was 2.2 nM. The same measure, in the same setting: under `Cc1cccc(-c2nc(Nc3ccc4[nH]ncc4c3)c3cccn3n2)n1` [Example 36, N-[2-(6-methylpyridin-2-yl)pyrrolo[2,1-f][1,2,4]triazin-4-yl]-1H-indazol-5-amine] stands 1.5 nM.
